{"source": "patent US20070122458A1", "about": "“Nicotine and Chocolate Compositions” (priority 2001, published 2007)", "origin": "cited, not measured here", "key": {"[1]": {"settings": "intravenous infusion; smokers and non-smokers similarly"}, "[2]": {"settings": "smoker, cigarette smoking"}, "[3]": {"settings": "nasal solution insufflation; smokers and non-smokers; not \"sweets\""}}}
{"compound": "CN1CCCC1c1cccnc1", "note": "(stereo not drawn) [nicotine]", "values": [{"measurement": "increase of the resting metabolic rate", "setting": "[1]", "value": 6.5, "unit": "%"}, {"measurement": "time to peak blood levels of nicotine after starting smoking", "setting": "[2]", "value": "5 to 10", "unit": "min"}, {"measurement": "perceived taste intensity of dietary \"fat\"", "setting": "[3]", "value": "significantly reduced"}]}
